What was measured:
[1] = tested on: subcutaneous flank SKOV-3 tumors; assay: T1-weighted MRI of tumor accumulation in tumor-bearing mice; assay type: in vivo, nu/nu mice; conditions: IV, gadolinium 0.072 mmoles/kg, SKOV-3 tumor-bearing mice, n=3
[2] = T1 relaxation time by MRI phantom, 4.7 Tesla; assay type: physicochemical; conditions: same gadolinium concentration, Avg ± SD, n=3

CNC[C@H](O)[C@@H](O)[C@H](O)[C@H](O)CO.CNC[C@H](O)[C@@H](O)[C@H](O)[C@H](O)CO.O=C([O-])CN(CCN(CC(=O)[O-])CC(=O)O)CCN(CC(=O)[O-])CC(=O)O.[Gd+3] [Magnevist]
time to clear from the tumor (T1-weighted images) ([1]; Figure 4A): ≤ 6 h
time to clear from tumor tissues (relative T1 signal, % tumor signal vs time) ([1]; Figure 4B): ≤ 5 h
T1 Relaxivity [2]: 22 ms
